From patent US6617127B2, “Synthesis and recovery of aspartame involving enzymatic deformylation step” (Holland Sweetener Company, V.O.F., priority 1998, dated 2003)
Residues, ends and D or L forms follow the SMILES beside them. *: point of attachment. For = O=C*

Tests used:
[1] = molecular target: T1, EC 3.5.1.27 PDF (Fe^2+) enzyme (Escherichia coli, UniProt P0A6K3); experiment: Deformylation reactions with PDF (Fe^2+), free amino compound determined by TNBS; assay type: biochemical, E. coli; details: for yield (%) of deformylated product: 100 mM substrate, 0.2 mM PDF (Fe^2+), MES/KOH pH 6.2, 250 mM KCl, 37° C., after 10 hours; for inhibition of the PDF in the deformylation of F-α-AP and F-α-APM: presence of the β-form
T1 construct: made in house; host or cells: E. coli (overproducing cells)
T1 sequence (P0A6K3 1-169): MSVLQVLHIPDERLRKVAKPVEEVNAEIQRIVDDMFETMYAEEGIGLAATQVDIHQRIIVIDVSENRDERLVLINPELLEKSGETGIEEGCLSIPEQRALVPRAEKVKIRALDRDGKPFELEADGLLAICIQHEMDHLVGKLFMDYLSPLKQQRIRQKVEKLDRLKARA
Description: An EC 3.5.1.27 PDF (Fe^2+) enzyme was isolated from overproducing E. coli cells grown at 30° C. in 1.6 l TB medium for 14-16 hours. […] After washing with 120 ml of 20 mM Hepes/KOH, 100 mM KF, 0.2 mM TCEP, pH 7.7, the PDF (Fe^2+) was eluted with 150 ml 20 mM Hepes/KOH, 100 mM KCl, 0.2 mM TCEP, pH 7.7. […] After adjustment of the TCEP concentration to 1 mM and protein concentration to 40 mg/ml PDF (Fe^2+) was stored frozen at −60° C.
Compounds (100 mM) as indicated in Table 2 for each separate Example were incubated in the presence of 100 mM aqueous 2-(N-morpholino)-ethanesulphonic acid (MES)/KOH buffer pH=6.2 and 250 mM KCl at 37° C. […] Following a brief centrifugation, the amount of deformylated compounds in the supernatant was determined by trinitrobenzene sulphonic acid (TNBS) according to the method of Fields (Methods in Enzymology, 25, 464-468 (1972)), using ε420=21.2 mM^−1 cm^−1. The amount of (deformylated) compound each time was corrected for the intrinsic amount of free amino compound which was detected without incubation with the PDF.
The product yields indicated are the yields after 10 hours of reaction time.
In addition, the catalytic properties of the PDF in the deformylation reactions of F-α-AP and F-α-APM (in particular the initial reaction rates for deformylation in resp. 1 hour for F-α-APM and 3 hours for F-α-AP) were determined by performing the reactions of Examples 1 and 2 at various substrate concentrations from 2-140 mM. In particular, the following catalytic properties of the enzyme were determined: […]

[2] = system: immobilized penicillin-acylase; experiment: Comparative Example D: deformylation of F-α-APM with penicillin-acylase, TLC; assay type: biochemical; details: 1 g F-α-APM in 25 ml, 0.2 g enzyme preparation, pH 6,5, 37° C., 48 hours
Description: 1 g of F-α-APM was dissolved in 25 ml of distilled water and the pH was adjusted to 6,5 by the addition of 0.1 M aqueous NaOH. Then, 0.2 g of an immobilized penicillin-acylase preparation was added. The reaction mixture was allowed to stand for 48 hours at 37° C. At regular time intervals during the reaction, samples were taken and analyzed by thin layer chromatography using α-APM as a reference substance.

[3] = system: penicillin-acylase; details: after 36 hours, 50 U of enzyme and 2 g of F-α-APM; cited from earlier work
[4] = substrate: COC(=O)[C@H](Cc1ccccc1)NC(=O)C[C@H](NC=O)C(=O)O; experiment: Deformylation reactions with PDF (Fe^2+), free amino compound determined by TNBS; assay type: biochemical, E. coli; details: other: PDF (Fe^2+), pH 6.2, 37° C.
[5] = substrate: COC(=O)[C@H](Cc1ccccc1)NC(=O)[C@H](CC(=O)O)NC=O; experiment: as above; assay type: biochemical, E. coli; details: other: substrate concentrations 2-140 mM, initial reaction rates
[6] = substrate: O=CN[C@@H](CC(=O)N[C@@H](Cc1ccccc1)C(=O)O)C(=O)O; experiment: as above; assay type: biochemical, E. coli; details: other: PDF (Fe^2+), pH 6.2, 37° C.
[7] = substrate: O=CN[C@@H](CC(=O)O)C(=O)N[C@@H](Cc1ccccc1)C(=O)O; experiment: as above; assay type: biochemical, E. coli; details: other: substrate concentrations 2-140 mM, initial reaction rates
[8] = Activity assay of isolated PDF (Fe^2+); assay type: biochemical; details: 5 mM formylmethionyl-alanine, 30° C., pH=7.2
Description: An EC 3.5.1.27 PDF (Fe^2+) enzyme was isolated from overproducing E. coli cells grown at 30° C. in 1.6 l TB medium for 14-16 hours. About 13 g (wet weight) of cell paste were suspended in 26 ml buffer (20 mM Hepes/KOH, 100 mM KF, pH 7.7 supplemented with 10 μg/ml catalase from bovine liver (Boehringer Mannheim) and 1 mM AEBSF, disintegrated by sonification (Branson B12, 20 min) at 0° C. and centrifuged at 200.000 g for 1 hour. The clear supernatant (1.3 g of protein; according to biurete reaction) was mixed with 1.3 ml 10% (w/v) Polymin G-35 (BASF) adjusted to pH 7.7 and centrifuged at 40.000 g for 10 minutes. The supernatant was applied to a 20 ml Met-Lys-Sepharose column that had been equilibrated with 20 mM Hepes/KOH, 100 mM KF, 0.2 mM TCEP, pH 7.7. After washing with 120 ml of 20 mM Hepes/KOH, 100 mM KF, 0.2 mM TCEP, pH 7.7, the PDF (Fe^2+) was eluted with 150 ml 20 mM Hepes/KOH, 100 mM KCl, 0.2 mM TCEP, pH 7.7. The protein containing fractions were concentrated by ultrafiltration using an Amicon PM10 membrane (yield: 140 mg protein, having an activity of 800 IU/mg; assay conditions: 5 mM formylmethionyl-alanine, 30° C., pH=7.2). After adjustment of the TCEP concentration to 1 mM and protein concentration to 40 mg/ml PDF (Fe^2+) was stored frozen at −60° C.

For `COC(=O)[C@H](Cc1ccccc1)NC(=O)[C@H](CC(=O)O)NC=O` [F-α-APM, N-formyl-α-L-aspartyl-L-phenylalanine methyl ester] (For-Asp-Phe-OMe), the “yield (%) of deformylated product” value [1] is given as 44.2%, the “formation of α-APM from F-α-APM” value [2] is given as “In none of the samples taken, formation of α-APM from F-α-APM could be demonstrated” and the yield of deformylation [3] is given as 20%.

With `O=CN[C@@H](CC(=O)O)C(=O)O` [F-Asp, N-formyl-L-aspartic acid] the “yield (%) of deformylated product” value [1] was 0.5%.

In the case of `O=CN[C@@H](CC(=O)O)C(=O)N[C@@H](Cc1ccccc1)C(=O)O` [F-α-AP, N-formyl-α-L-aspartyl-L-phenylalanine] (For-Asp-Phe-OH), the “yield (%) of deformylated product” value [1] is reported as 21.6%.

With `O=CN[C@@H](CC(=O)N[C@@H](Cc1ccccc1)C(=O)O)C(=O)O` [F-β-AP, N-formyl-β-L-aspartyl-L-phenylalanine] the “yield (%) of deformylated product” value [1] was 1.1% and the “inhibition of the PDF in the deformylation of F-α-AP and F-α-APM” value [1] was “does not give any inhibition”.

With `COC(=O)[C@H](Cc1ccccc1)NC(=O)C[C@H](NC=O)C(=O)O` [F-β-APM, N-formyl-β-L-aspartyl-L-phenylalanine methyl ester] the “yield (%) of deformylated product” value [1] was 0.2% and the “inhibition of the PDF in the deformylation of F-α-AP and F-α-APM” value [1] was “does not give any inhibition”.

B1: EC 3.5.1.27 PDF (Fe^2+) enzyme (Escherichia coli K-12) (protein)
chain: MSVLQVLHIPDERLRKVAKPVEEVNAEIQRIVDDMFETMYAEEGIGLAATQVDIHQRIIVIDVSENRDERLVLINPELLEKSGETGIEEGCLSIPEQRALVPRAEKVKIRALDRDGKPFELEADGLLAICIQHEMDHLVGKLFMDYLSPLKQQRIRQKVEKLDRLKARA
notes: made in house; host or cells: E. coli (overproducing cells)
With B1 the kcat/Km [4] was < 0.0001 M⁻¹ s⁻¹, the Km [5] was 25.3 mM and the kcat [5] was 0.0117 s⁻¹. The kcat/Km [5] was 0.46 M⁻¹ s⁻¹, the kcat/Km [6] was < 0.0001 M⁻¹ s⁻¹ and the Km [7] was 12.3 mM. The kcat [7] was 0.00333 s⁻¹ and the kcat/Km [7] was 0.27 M⁻¹ s⁻¹.

B2: PDF (Fe^2+): EC 3.5.1.27 formylmethionyl peptide deformylase with Fe^2+ co-factor, isolated from overproducing E. coli cells (protein, UniProt P0A6K3 2-169, looked up)
Peptide deformylase: SVLQVLHIPDERLRKVAKPVEEVNAEIQRIVDDMFETMYAEEGIGLAATQVDIHQRIIVIDVSENRDERLVLINPELLEKSGETGIEEGCLSIPEQRALVPRAEKVKIRALDRDGKPFELEADGLLAICIQHEMDHLVGKLFMDYLSPLKQQRIRQKVEKLDRLKARA
modifications: Fe2+ cofactor
notes: EC 3.5.1.27 formylmethionyl peptide deformylase with Fe^2+ co-factor, isolated from overproducing E. coli cells
In the case of B2, the “activity of the enzyme” value [8] is reported as 800 IU/mg.
